In general, half-life refers to the time needed for the level to fall by half in the phase considered.

Activity calls are given as the source filed them.

This note sets out measurements from ChEMBL document CHEMBL1149571, “Proinsecticide candidates N-(5-methyl-2-oxo-1,3-dioxol-4-yl)methyl derivatives of imidacloprid and 1-chlorothiazolylmethyl-2-nitroimino-imidazolidine” (Bioorg Med Chem Lett, 2007).

A short description of data set [1]: Chemical stability assessed as half life of hydrolysis in acidic buffer at pH 5.4. The class given is physicochemical.
Data set [2] can be described thus: Chemical stability assessed as half life of hydrolysis in alkaline buffer at pH 8.3. It is filed as physicochemical.
The nature of data set [3]: Chemical stability assessed as half life of hydrolysis in physiological solution at pH 7.6. It is filed as physicochemical.
Data set [4] concerns Periplaneta americana. The data set can be described thus: Insecticidal activity against american cockroach after 24 hrs. It is filed as functional.
Data set [5] relates to Periplaneta americana. The data set can be described thus: Activity at nAch receptor in american cockroach neurons assessed as induction of inward current at 10 uM by whole-cell patch clamp method. Background: The patch-clamp technique gives a direct electrical read-out from membranes.

Turning to `Cc1oc(=O)oc1CN1CCN(Cc2ccc(Cl)nc2)/C1=N\[N+](=O)[O-]`, the half-life is greater than 48 h in data set [1], 15.5 h in data set [2] and 11.6 h in data set [3]. Also, the MLD in the data set with Periplaneta americana [4] was 6.4 10^-8mol. The outcome in the data set on Periplaneta americana [5] was Active.

Regarding `Cc1oc(=O)oc1CN1CCN(Cc2cnc(Cl)s2)/C1=N\[N+](=O)[O-]`, the half-life is greater than 48 h in data set [1], 10.6 h in data set [2] and 10.5 h in data set [3]. In the data set with Periplaneta americana [4], the MLD is recorded as 6.4 10^-8mol. In the data set with Periplaneta americana [5], the outcome was Active.
